According to the NIST ThermoML archive (doi:10.1016/j.tca.2014.07.022):

Assay: xn = mol fraction of the nth substance listed
Details: 100 kPa, Liquid; for viscosity: Concentric cylinders viscometry; for mass density: Vibrating tube method

CC(=O)CC(C)C [4-methylpentan-2-one] + CCC(C)O
Details	mass density [kg/m3]	viscosity [mPa·s]
293.15 K, x1 = 0.1002	805.1	2.361
293.15 K, x1 = 0.1905	803.8	1.802
293.15 K, x1 = 0.2801	802.8	1.468
293.15 K, x1 = 0.4054	801.7	1.162
293.15 K, x1 = 0.4891	801.2	1.001
293.15 K, x1 = 0.6123	800.7	0.84
293.15 K, x1 = 0.6942	800.5	0.771
293.15 K, x1 = 0.779	800.5	0.713
293.15 K, x1 = 0.8747	800.5	0.646
293.15 K, x1 = 0.9522	800.7	0.614
293.15 K, x1 = 1	800.8	0.588
298.15 K, x1 = 0.1002	800.9	2.041
298.15 K, x1 = 0.1905	799.5	1.598
298.15 K, x1 = 0.2801	798.4	1.311
298.15 K, x1 = 0.4054	797.2	1.053
298.15 K, x1 = 0.4891	796.6	0.916
298.15 K, x1 = 0.6123	796	0.776
298.15 K, x1 = 0.6942	795.9	0.717
298.15 K, x1 = 0.779	795.8	0.666
298.15 K, x1 = 0.8747	795.8	0.607
298.15 K, x1 = 0.9522	796	0.582
298.15 K, x1 = 1	796.1	0.554
303.15 K, x1 = 0.1002	796.4	1.762
303.15 K, x1 = 0.1905	795	1.403
303.15 K, x1 = 0.2801	793.9	1.173
303.15 K, x1 = 0.4054	792.6	0.955
303.15 K, x1 = 0.4891	792.1	0.84
303.15 K, x1 = 0.6123	791.5	0.716
303.15 K, x1 = 0.6942	791.3	0.668
303.15 K, x1 = 0.779	791.2	0.621
303.15 K, x1 = 0.8747	791.3	0.569
303.15 K, x1 = 0.9522	791.4	0.545
303.15 K, x1 = 1	791.6	0.523
308.15 K, x1 = 0.1002	792	1.531
308.15 K, x1 = 0.1905	790.5	1.247
308.15 K, x1 = 0.2801	789.3	1.055
308.15 K, x1 = 0.4054	788	0.87
308.15 K, x1 = 0.4891	787.4	0.775
308.15 K, x1 = 0.6123	786.7	0.664
308.15 K, x1 = 0.6942	786.5	0.623
308.15 K, x1 = 0.779	786.5	0.582
308.15 K, x1 = 0.8747	786.5	0.536
308.15 K, x1 = 0.9522	786.7	0.513
308.15 K, x1 = 1	786.9	0.493
313.15 K, x1 = 0.1002	787.6	1.341
313.15 K, x1 = 0.1905	786	1.1
313.15 K, x1 = 0.2801	784.7	0.94
313.15 K, x1 = 0.4054	783.4	0.787
313.15 K, x1 = 0.4891	782.7	0.708
313.15 K, x1 = 0.6123	782.1	0.621
313.15 K, x1 = 0.6942	781.9	0.58
313.15 K, x1 = 0.779	781.8	0.544
313.15 K, x1 = 0.8747	781.9	0.505
313.15 K, x1 = 0.9522	782.1	0.485
313.15 K, x1 = 1	782.3	0.463
318.15 K, x1 = 0.1002	783	1.181
318.15 K, x1 = 0.1905	781.3	0.984
318.15 K, x1 = 0.2801	780	0.847
318.15 K, x1 = 0.4054	778.6	0.715
318.15 K, x1 = 0.4891	777.9	0.649
318.15 K, x1 = 0.6123	777.3	0.575
318.15 K, x1 = 0.6942	777.1	0.535
318.15 K, x1 = 0.779	777	0.505
318.15 K, x1 = 0.8747	777.1	0.477
318.15 K, x1 = 0.9522	777.4	0.458
318.15 K, x1 = 1	777.6	0.437
323.15 K, x1 = 0.1002	778.3	1.035
323.15 K, x1 = 0.1905	776.6	0.88
323.15 K, x1 = 0.2801	775.3	0.772
323.15 K, x1 = 0.4054	773.8	0.662
323.15 K, x1 = 0.4891	773.2	0.603
323.15 K, x1 = 0.6123	772.6	0.535
323.15 K, x1 = 0.6942	772.4	0.501
323.15 K, x1 = 0.779	772.3	0.471
323.15 K, x1 = 0.8747	772.5	0.449
323.15 K, x1 = 0.9522	772.7	0.434
323.15 K, x1 = 1	773	0.41
